The target in one data set is T1, SyCrtE (Synechocystis sp. PCC 6803, UniProt P72683).
T1 sequence (P72683 1-302): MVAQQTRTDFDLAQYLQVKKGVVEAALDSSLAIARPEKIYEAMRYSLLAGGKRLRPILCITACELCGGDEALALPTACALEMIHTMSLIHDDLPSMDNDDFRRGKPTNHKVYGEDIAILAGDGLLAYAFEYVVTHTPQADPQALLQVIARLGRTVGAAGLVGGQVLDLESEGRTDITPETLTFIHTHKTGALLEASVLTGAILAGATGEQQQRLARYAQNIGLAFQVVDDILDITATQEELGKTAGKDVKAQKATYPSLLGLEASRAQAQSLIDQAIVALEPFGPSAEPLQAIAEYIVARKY
The data set can be described thus: LC-MS of prenyl pyrophosphate products. The data set is classed as biochemical. As to conditions: 50 µM DMAPP, 100 µM IPP, 10 mM MgCl2, 25 mM MOPSO pH 7.2, 30 °C, 2 h.

The target in another data set is T2, SeCrtE (Synechococcus elongatus, UniProt Q31Q61).
T2 sequence (Q31Q61 1-301): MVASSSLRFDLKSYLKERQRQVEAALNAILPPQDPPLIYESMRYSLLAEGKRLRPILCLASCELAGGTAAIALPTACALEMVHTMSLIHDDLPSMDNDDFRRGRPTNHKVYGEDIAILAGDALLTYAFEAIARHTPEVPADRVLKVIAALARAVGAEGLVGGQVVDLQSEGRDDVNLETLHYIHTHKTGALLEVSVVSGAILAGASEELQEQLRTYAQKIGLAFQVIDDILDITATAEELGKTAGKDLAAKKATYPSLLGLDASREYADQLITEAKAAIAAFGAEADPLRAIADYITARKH
The data set can be described thus: LC-MS of prenyl pyrophosphate products. Format: biochemical. As to conditions: 50 µM DMAPP, 100 µM IPP, 10 mM MgCl2, 25 mM MOPSO pH 7.2, 30 °C, 2 h.

Data set [1] addresses CrtE from Synechococcus elongatus sp. PCC 7942 with a C-terminal His-tag (SeCrtE-His) (Synechococcus elongatus sp. PCC 7942). The data set can be described thus: crystal structure.
The data set “crystal structure” concerns the molecule itself. As to the kind of experiment: crystal structure.

For orientation: stoichiometry N means the number of molecules, sites or subunits per partner or assembly.

In the case of `CC(C)=CCC/C(C)=C/CC/C(C)=C/CC/C(C)=C/COP(=O)(O)OP(=O)(O)O` [GGPP], the “LC-MS of prenyl pyrophosphate products” value on SyCrtE is “Under identical experimental conditions, SyCrtE produced GGPP, GPP and FPP”; at SeCrtE, “For SeCrtE, only GGPP formation was detected”.

On to “CrtE from Synechococcus elongatus sp. PCC 7942 with a C-terminal His-tag (SeCrtE-His) (enzyme)”, for which, in data set [1], the stoichiometry N is 2.

B1: CrtE from Synechocystis sp. PCC 6803 with a C-terminal His-tag (SyCrtE-His) (enzyme)
chain: T1 sequence (P72683 1-302)
Consider B1, for which, in “crystal structure”, the “stoichiometry N” value turned out to be 2.

The values are drawn from paper PMC9796789 (The Febs Journal, 2022).
